“And” between values parts separate entries of the source, which are not always exact repeats. Equal values may be shown once. Read-outs that look alike come from different tables or passages of the source.
Columns and labels:
[1] = Clinical pharmacokinetics of (R)-bicalutamide (Css, t1/2) in prostate cancer patients given bicalutamide 300-600 mg once daily (Example 1); type: in vivo, human; conditions: for Steady state plasma conc. geometric mean: (R)-bicalutamide
Protocol: Plasma samples were stored at −20° C. until analysis. […] Quantification of the enantiomers was achieved using ultra-violet absorbance.
Method: Assays were performed using 0.5 ml plasma aliquots. […] A further control compound (internal standard) was added to each sample, along with 1.5 ml of pH 7 0.05M phosphate buffer (Electronic Instruments Ltd.) and 6 mls of ethyl acetate. The samples were mixed and then centrifuged and a 5 ml aliquot of the ethyl acetate layer (upper layer) was removed and evaporated to dryness in a polypropylene tube. The residue was re-dissolved in 400 μl of water:acetonitrile (70:30 v/v).
The fraction was evaporated to dryness and reconstituted in 400 μl of an HPLC eluent; 0.02 M pH 7 phosphate buffer; acetonitrile (85:15 v/v). 200 μl of the reconstituted fraction was then injected onto the chiral chromatographic system.

serum PSA levels = assay: Change in serum PSA levels in M0/M1 prostate cancer patients (Example 1); type: in vivo, human
Protocol: Patients had histologically or cytologically confirmed M0 (T3 or T4) or M1 prostate cancer and a PSA level ≧20 ng/mL.

[2] = cited from earlier work
[3] = test system: advanced prostate cancer (M0 or M1); assay: Survival (Kaplan-Meier time to death) versus castration in patients with advanced prostate cancer (Example 1); conditions: 450-600 mg
Method: Tolerability was similarly assessed at 450 mg/day (3 tablets) and 600 mg/day (4 tablets).
After objective disease progression, patients were followed up every 3 months for survival and/or adverse event data.
Results are presented as for both the overall patient population and also by disease stage (M0 or M1).

| Compound | Steady state plasma conc. geometric mean ([1]; 300 mg once daily, 18 patients) [µg/mL] | Steady state plasma conc. geometric mean ([1]; 450 mg once daily, 82 patients) [µg/mL] | Steady state plasma conc. geometric mean ([1]; 600 mg once daily, 34 patients) [µg/mL] | plasma concentration of (R)-bicalutamide higher than with bicalutamide 150 mg ([1]; doses ≥300 mg vs 150 mg (21.6 μg/mL)) | plasma concentration of (R)-bicalutamide higher than with bicalutamide 200 mg ([1]; doses ≥300 mg vs 200 mg (28.9 μg/mL)) | mean steady state plasma concentration of R-bicalutamide ([1]; patients, conventional tablets, doses of 300 mg/day and above (300-600 mg)) [µg/mL] | percentage decrease in PSA (serum PSA levels; Week 12, bicalutamide 300 mg) [%] | percentage decrease in PSA (serum PSA levels; Week 12, bicalutamide 450 mg) [%] | percentage decrease in PSA (serum PSA levels; Week 12, bicalutamide 600 mg) [%] | percentage reduction in geometric mean PSA compared with castration group (serum PSA levels; baseline to Week 4) | t1/2 of (R)-bicalutamide ([2]; bicalutamide doses of 10-200 mg) [h] | mean steady state plasma concentration of R-bicalutamide ([2]; patients, 150 mg daily) | plasma concentration of (R)-bicalutamide (Css) ([2]; patients, bicalutamide 200 mg) [ng/mL] | events (deaths), share of patients ([3]; M0 patients, 28/74) [%] | events (deaths), share of patients ([3]; M1 patients, 43/63) [%] | events (deaths), share of patients ([3]; all patients, median 5 years follow up, 71/137) [%] | share of the total circulating enantiomers at steady state ([2]; steady state) |
| --- | --- | --- | --- | --- | --- | --- | --- | --- | --- | --- | --- | --- | --- | --- | --- | --- | --- |
| 4′-cyano-α′,α′,α′-trifluoro-3-(4-fluorophenylsulphonyl)-2-hydroxy-2-methylpropiono-m-toluidide [Bicalutamide] | 35 | 31 | 36 | approximately 50% | approximately 15% | 31 to 36 | 93 | 95 | 96 | greater percentage reductions in geometric mean PSA values | 150 to 213 | 21.6 µg/mL and 21 µg/mL | 28900 | 37.8 | 68.3 | 51.8 | – |
| C[C@](O)(CS(=O)(=O)c1ccc(F)cc1)C(=O)Nc1ccc(C#N)c(C(F)(F)F)c1 [R-Bicalutamide] | – | – | – | – | – | – | – | – | – | – | – | – | – | – | – | – | approximately 99% |

From patent US20080161404A1 (ASTRAZENECA AB, priority 2005, published 2008)
